{"source": "patent US8952004B2", "about": "“CXCR3 receptor antagonists” (Boehringer Ingelheim International GmbH, priority 2010, dated 2015)", "origin": "cited, not measured here", "test_system": "atherosclerotic lesion formation", "conditions": "LDL receptor knockout model, dosed prophylactically"}
{"smiles": "CCOc1ccc(-n2c(C(C)N(Cc3cccnc3)C(=O)Cc3ccc(F)c(C(F)(F)F)c3)nc3ncccc3c2=O)cc1", "note": "(stereo not shown) [NBI-74330]", "values": [{"measurement": "atherosclerotic lesion formation", "value": "significantly attenuated atherosclerotic lesion formation"}]}
